In one experiment the test system is H4c receptor variant. Particulars: 1 μM in PBS, 37° C., 30 min, transfected COS-7 cells, H4c variant cDNA, compared with H4a-transfected cells. As to the method:
(§1) The full length wild type […]) and the isoforms H4b and […] were cloned in pCDNA3.1 […] Tag eukaryotic expression vector for expression in COS-7 cells. The COS-7 cells grown in culture chambers were transfected with 2 μg of plasmid DNA containing either one of the H4 isoforms or the wild type H4 with superfect (Qiagen) transfection reagent. Binding of Histamine to receptor or receptor variants was determined by BODIPY-L-Histamine or Fluorescein Histamine (Molecular Probes, Eugene Oreg.). Briefly, the transfected cells were washed with PBS and 1 μM concentration of BODIPY-L-Histamine or Fluorescein Histamine in PBS was added to the cells and incubated at 37° C. for 30-min. Unbound fluorescent labelled histamine was washed in cold PBS and the slides were examined immediately under a fluorescent microscope.

A further experiment has as its system H4b receptor variant. Particulars: 1 μM in PBS, 37° C., 30 min, transfected COS-7 cells, H4b variant cDNA, compared with H4a-transfected cells. How it is done:
as §1

As for BODIPY-L-Histamine, the “Binding of fluorescent labelled histamine (fluorescence under microscope) versus H4 wildtype (H4a)” value in the experiment on H4c receptor variant and with H4b receptor variant was “qualitatively comparable fluorescence” throughout.
On to Fluorescein Histamine, for which the “Binding of fluorescent labelled histamine (fluorescence under microscope) versus H4 wildtype (H4a)” value in the experiment with H4c receptor variant and in the experiment with H4b receptor variant was “qualitatively comparable fluorescence” each time.

Source of the values: patent US7164003B2, “Histamine receptor H4 polynucleotides” (Merck & Co. Inc., priority 2001, dated 2007).
